Reference: patent US9963464B2, “Macrocyclic compounds” (Bayer Pharma Aktiengesellschaft, priority 2014, dated 2018)

Columns and labels:
[1] = In vivo pharmacokinetics in rats; details: male, Wistar, rat, plasma, iv, i.v. bolus dosing, read-out: t1/2: terminal half-life (converted)
Experimental: 7. In Vivo Pharmacokinetics in Rats
For in vivo pharmacokinetic experiments test compounds were administered to male Wistar rats intravenously at doses of 0.3 to 1 mg/kg formulated as solutions using either rat plasma or solubilizers such as PEG400 in well-tolerated amounts.
For pharmacokinetics after intravenous administration test compounds were given as i.v. bolus and blood samples were taken at 2 min, 8 min, 15 min, 30 min, 45 min, 1 h, 2 h, 4 h, 6 h, 8 h and 24 h after dosing. […] Blood was collected into Lithium-Heparin tubes (Monovetten®, Sarstedt) and centrifuged for 15 min at 3000 rpm. An aliquot of 100 μL from the supernatant (plasma) was taken and precipitated by addition of 400 μL ice cold acetonitrile and frozen at −20 OC over night. Samples were subsequently thawed and centrifuged at 3000 rpm, 4° C. for 20 minutes. Aliquots of the supernatants were taken for analytical testing using an Agilent 1200 HPLC-system with LCMS/MS detection. PK parameters were calculated by non-compartmental analysis using a PK calculation software.
PK parameters derived from concentration-time profiles after i.v.: CLplasma: Total plasma clearance of test compound (in L/kg/h); CLblood: Total blood clearance of test compound: CLplasma*Cp/Cb (in L/kg/h) with Cp/Cb being the ratio of concentrations in plasma and blood, AUCnorm: Area under the concentration-time curve from t=0 h to infinity (extrapolated) divided by the administered dose (in kg*h/L); t1/2: terminal half-life (in h).

[2] = tested on: MOLM-13 cells; test: Proliferation assay MOLM-13; assay type: cell-based; details: Homo sapiens, 72-hour exposure, Cell Titre-Glo, read-out: Inhibition of MOLM-13 cell proliferation IC50
Experimental: (§1) Cultivated tumour cells (HeLa, human cervical tumour cells, ATCC CCL-2; NCI-H460, human non-small cell lung carcinoma cells, ATCC HTB-177; A2780, human ovarian carcinoma cells, ECACC #93112519; DU 145, hormone-independent human prostate carcinoma cells, ATCC HTB-81; HeLa-MaTu-ADR, multidrug-resistant human cervical carcinoma cells, EPO-GmbH Berlin; Caco-2, human colorectal carcinoma cells, ATCC HTB-37; B16F10, mouse melanoma cells, ATCC CRL-6475) were plated at a density of 5,000 cells/well (DU145, HeLa-MaTu-ADR), 3,000 cells/well (NCI-H460, HeLa), 2,500 cells/well (A2780), 1,500 cells/well (Caco-2), or 1,000 cells/well (B16F10) in a 96-well multititer plate in 200 μL of their respective growth medium supplemented 10% fetal calf serum. […] Cell proliferation was determined by staining the cells with crystal violet: the cells were fixed by adding 20 μl/measuring point of an 11% glutaric aldehyde solution for 15 minutes at room temperature. […] The extinction was determined by photometry at a wavelength of 595 nm. The change of cell number, in percent, was calculated by normalization of the measured values to the extinction values of the zero-point plate (=0%) and the extinction of the untreated (0 μm) cells (=100%). […] Cell viability was assessed after 72-hour exposure with the Cell Titre-Glo Luminescent Cell Viability Assay (Promega). […]

[3] = tested on: A2780 cells; test: Proliferation assay A2780; assay type: cell-based; details: Homo sapiens, A2780, 96 h; 4 days, crystal violet; read-out: Inhibition of A2780 cell proliferation IC50
Experimental: as §1

half-life [1] [h] | IC50 [2] [nM] | IC50 [3] [nM] | Compound
2.2 | 4 | – | CS(=N)(=O)Cc1cc2cc(c1)OCCCCOc1cc(F)ccc1-c1nc(ncc1F)N2 (racemic) [Example 1, (rac)-16,20-Difluoro-9-[(S-methylsulfonimidoyl)methyl]-2,3,4,5-tetrahydro-12H-13,17-(azeno)-11,7-(metheno)-1,6,12,14-benzodioxadiazacyclononadecine]
7.2 | 2 | – | CS(=N)(=O)Cc1cc2nc(c1)OCCCOc1cc(F)ccc1-c1cc(ncc1F)N2 (racemic) [Example 5, (rac)-15,19-Difluoro-8-[(S-methylsulfonimidoyl)methyl]-3,4-dihydro-2H,11H-10,6-(azeno)-12,16-(metheno)-1,5,11,13-benzodioxadiazacyclooctadecine]
4.9 | – | – | CS(=N)(=O)Cc1cc2cc(c1)OCCCOc1cc(F)ccc1-c1nc(ncc1F)N2 (racemic) [Example 15, (rac)-15,19-difluoro-8-[(S-methylsulfonimidoyl)methyl]-3,4-dihydro-2H,11H-12,16-(azeno)-10,6-(metheno)-1,5,11,13-benzodioxadiazacyclooctadecine]
– | – | 115 | CSCc1cc2nc(c1)OCCCCOc1cc(F)ccc1-c1cc(ncc1F)N2 [Example 12, 16,20-Difluoro-9-[(methylsulfanyl)methyl]-2,3,4,5-tetrahydro-12H-11,7-(azeno)-13,17-(metheno)-1,6,12,14-benzodioxadiazacyclononadecine]
